Patent publication US10822338B2, “Substituted aminoquinazoline compounds as A2A antagonist” (Merck Sharp & Dohme Corp., priority 2015, dated 2020)
pKi: −log10 of the molar value.

Molecular target: human A2A receptor (Homo sapiens (Human), UniProt P29274)
Assay: A2A competition binding assay using Scintillation Proximity technology
Conditions: 0.5 nM tritiated radioligand, Cheng-Prusoff
Method: Binding affinities of compounds of the invention for the human A2A receptor were determined in a competition binding assay using Scintillation Proximity technology. Thus, 1^μg (^ denotes 1 μg of membrane/well), or preferably 0.25 μg of membranes from HEK293 cells expressing the human A2a receptor were incubated with a compound of the invention at concentrations ranging from 3000 nM to 0.15 nM in a reaction mixture containing also 0.5 nM of a tritiated form of 5-amino-7-[2-phenethyl]-2-(furan-2-yl)-7H-pyrazolo[4,3-e][1,2,4]triazolo[1,5-c]pyrimidine (the tritiated compound) and 25 μg of wheat germ agglutin-coated yttrium silicate SPA beads for one hour at room temperature with agitation. The beads were then allowed to settle to the bottom of the wells for 1 hr, after which the membrane-associated radioactivity was determined by scintillation counting in a TopCount microplate reader. Ki values were determined using the Cheng-Prusoff equation.
HEK293 cells expressing the human, rat, dog or monkey adenosine 2a receptor (Purchased from Perkin-Elmer # RBHA2AM400UA).
The Tritiated compound was prepared in-house by MRL Radiochemistry according to published methods.
Wheat germ agglutinin-coated yttrium silicate SPA beads (GE Healthcare #RPNQ0023). Dilute to 25 mg/mL in assay buffer.
Assay Buffer was prepared in house: Dulbecco's calcium and magnesium free phosphate buffered saline+10 mM MgCl2
Adenosine deaminase from calf intestine, 10 mg/2 mL (Roche #10 102 105 001).
A2A antagonist standard (9-chloro-1-(2-furanyl)-[1,2,4]triazolo[1,5-c]quinazolin-5-amine from Tocris Bioscience)
Make eight 1:3 serial dilutions in 100% DMSO from a 3 mM compound stock
Transfer 50 nL of compound into a 384-well OptiPlate (Perkin Elmer).
Typically, final concentrations of compound used in the assay ranged from 3000 nM to 0.152 nM.
Dilute a solution of the Tritiated compound to 1.25 nM in assay buffer. This a 2.5× solution. The final concentration in the assay is 0.5 nM. Calculate the concentration by counting two 5 μL aliquots.
Use *1 ug or preferrably 0.25 ug of membrane/well. Dilute membranes to 9.7 μg/ml in assay buffer. Treat with 20 ug/ml adenosine deaminase (ADA) for 15 minutes at room temperature to degrade endogenous adenosine.
Use 25 μg/well wheat germ agglutinin-coated yttrium silicate SPA beads.
Mix ADA-treated membranes and SPA beads together for 30 min prior to assay.
To the Perkin-Elmer Optiplate-384 containing the compound titration add 20 μL of 2.5× solution of the Tritiated compound and 30 μL of the membrane-bead mixture. Incubate for one hour at room temperature with agitation.
Include total binding (assay buffer+1% DMSO) and non-specific binding (CGS15943, 1 μM) wells.
Allow the beads to settle for one hour.
A curve fitting program (i.e., Prism, Activity Base, Chemcart) is used to determine the EC50. The Ki value is calculated using the Cheng-Prusoff equation. Ki=EC50/(1+(radioligand concentration/Kd)) Counting and Calculations
Counting and calculations were performed as described within the “A2A Activity Binding of Compounds of the Invention” section. Using the foregoing methods, the following results were obtained using compounds of the invention described herein. Each example compound tested is reported in the following format: Example number: A2A Ki (nM) selectivity.

[1] = values marked ^: 1 μg of membrane/well (HEK293 cells expressing the human A2a receptor)
[2] = 0.25 μg of membranes from HEK293 cells expressing the human A2a receptor per well

human A2A receptor, sequence (P29274 whole entry): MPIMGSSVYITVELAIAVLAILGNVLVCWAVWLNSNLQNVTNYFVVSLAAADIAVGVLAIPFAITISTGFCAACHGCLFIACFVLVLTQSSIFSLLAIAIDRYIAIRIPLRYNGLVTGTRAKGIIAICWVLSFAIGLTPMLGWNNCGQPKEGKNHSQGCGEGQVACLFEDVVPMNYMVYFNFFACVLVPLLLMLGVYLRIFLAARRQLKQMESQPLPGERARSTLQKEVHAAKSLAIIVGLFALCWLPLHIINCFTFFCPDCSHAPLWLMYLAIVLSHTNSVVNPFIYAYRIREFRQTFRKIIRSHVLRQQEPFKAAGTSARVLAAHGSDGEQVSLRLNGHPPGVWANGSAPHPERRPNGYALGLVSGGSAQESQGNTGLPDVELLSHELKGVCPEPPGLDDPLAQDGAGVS

| SMILES | pKi [1] | pKi [2] |
| --- | --- | --- |
| Nc1nc2c(Cl)cccc2c2nc(C3CCCN(CCC(F)(F)F)C3)nn12 (racemic) [Example 27, (±)-7-chloro-2-(1-(3,3,3-trifluoropropyl)piperidin-3-yl)-[1,2,4]triazolo[1,5-c]quinazolin-5-amine] | 8.01 | – |
| COc1cccc2c1nc(N)n1nc(C3CCN(c4cccc(F)c4)C3)nc21 (racemic) [Example 51, (±)-2-(1-(3-fluorophenyl)pyrrolidin-3-yl)-7-methoxy[1,2,4]triazolo[1,5-c]quinazolin-5-amine] | 8.85 | – |
| COc1cccc2c1nc(N)n1nc(C3CCCC(CCC(F)(F)F)C3)nc21 (single isomer, unassigned) [Example 29A, 7-methoxy-2-(3-(3,3,3-trifluoropropyl)cyclohexyl)-[1,2,4]triazolo[1,5-c]quinazolin-5-amine] | – | 7.80 |
| COc1cccc2c1nc(N)n1nc(C3CCCC(CCC(F)(F)F)C3)nc21 (single isomer, unassigned) [Example 29B, 7-methoxy-2-(3-(3,3,3-trifluoropropyl)cyclohexyl)-[1,2,4]triazolo[1,5-c]quinazolin-5-amine] | – | 8.77 |
| COc1cccc2c1nc(N)n1nc(C3CCCC(CCC(F)(F)F)C3)nc21 (single isomer, unassigned) [Example 29C, 7-methoxy-2-(3-(3,3,3-trifluoropropyl)cyclohexyl)-[1,2,4]triazolo[1,5-c]quinazolin-5-amine] | – | 9.40 |
| COc1cccc2c1nc(N)n1nc(C3CCCC(CCC(F)(F)F)C3)nc21 (single isomer, unassigned) [Example 29D, 7-methoxy-2-(3-(3,3,3-trifluoropropyl)cyclohexyl)-[1,2,4]triazolo[1,5-c]quinazolin-5-amine] | – | 7.77 |
| COc1cccc2c1nc(N)n1nc(C3CCCC(N)C3)nc21 (single isomer, unassigned) [Example 30A, 2-(3-aminocyclohexyl)-7-methoxy-[1,2,4]triazolo[1,5-c]quinazolin-5-amine] | – | 7.04 |
| COc1cccc2c1nc(N)n1nc(C3CCCC(N)C3)nc21 (single isomer, unassigned) [Example 30B, 2-(3-aminocyclohexyl)-7-methoxy-[1,2,4]triazolo[1,5-c]quinazolin-5-amine] | – | 7.36 |
| COc1cccc2c1nc(N)n1nc(C3CCCC(N)C3)nc21 (single isomer, unassigned) [Example 30C, 2-(3-aminocyclohexyl)-7-methoxy-[1,2,4]triazolo[1,5-c]quinazolin-5-amine] | – | 6.94 |
| COc1cccc2c1nc(N)n1nc(C3CCCC(N)C3)nc21 (single isomer, unassigned) [Example 30D, 2-(3-aminocyclohexyl)-7-methoxy-[1,2,4]triazolo[1,5-c]quinazolin-5-amine] | – | 6.18 |
| COc1cccc2c1nc(N)n1nc(C3CCCCN(CC(F)(F)F)C3)nc21 (single isomer, unassigned) [Example 32A, 7-methoxy-2-(1-(2,22-trifluoroethyl)azepan-3-yl)-[1,2,4]triazolo[1,5-c]quinazolin-5-amine] | – | 9.15 |
| COc1cccc2c1nc(N)n1nc(C3CCCCN(CC(F)(F)F)C3)nc21 (single isomer, unassigned) [Example 32B, 7-methoxy-2-(1-(2,22-trifluoroethyl)azepan-3-yl)-[1,2,4]triazolo[1,5-c]quinazolin-5-amine] | – | 8.23 |
| COc1cccc2c1nc(N)n1nc(C3CNCC(F)(F)C3)nc21 (single isomer, unassigned) [Example 33A, 2-(5,5-difluoropiperidin-3-1-yl)-7-methoxy-[1,2,4]triazolo[1,5-c]quinazolin-5-amine] | – | 8.28 |
| COc1cccc2c1nc(N)n1nc(C3CNCC(F)(F)C3)nc21 (single isomer, unassigned) [Example 33B, 2-(5,5-difluoropiperidin-3-1-yl)-7-methoxy-[1,2,4]triazolo[1,5-c]quinazolin-5-amine] | – | 8.62 |
| COc1cccc2c1nc(N)n1nc(C3CN(CC(F)F)CC(F)(F)C3)nc21 (single isomer, unassigned) [Example 34A, 2-(1-(2,2-difluoroethyl)-5,5-difluoropiperidin-3-yl)-7-methoxy-[1,2,4]triazolo[1,5-c]quinazolin-5-amine] | – | 8.96 |
| COc1cccc2c1nc(N)n1nc(C3CN(CC(F)F)CC(F)(F)C3)nc21 (single isomer, unassigned) [Example 34B, 2-(1-(2,2-difluoroethyl)-5,5-difluoropiperidin-3-yl)-7-methoxy-[1,2,4]triazolo[1,5-c]quinazolin-5-amine] | – | 8.33 |

Second part, the molecule after the results:

| pKi [1] | pKi [2] | SMILES |
| --- | --- | --- |
| – | 7.68 | COc1cccc2c1nc(N)n1nc(C3CC4CCC3N(CC(F)(F)F)C4)nc21 (single isomer, unassigned) [Example 35A, 7-methoxy-2-(2-(2,2,2-trifluoroethyl)-2-azabicyclo[2.2.2]octan-6-yl)-[1,2,4]triazolo[1,5-c]quinazolin-5-amine] |
| – | 7.27 | COc1cccc2c1nc(N)n1nc(C3CC4CCC3N(CC(F)(F)F)C4)nc21 (single isomer, unassigned) [Example 35B, 7-methoxy-2-(2-(2,2,2-trifluoroethyl)-2-azabicyclo[2.2.2]octan-6-yl)-[1,2,4]triazolo[1,5-c]quinazolin-5-amine] |
| – | 9.52 | COc1cccc2c1nc(N)n1nc(C3CC4CCC3N(CC(F)(F)F)C4)nc21 (single isomer, unassigned) [Example 35C, 7-methoxy-2-(2-(2,2,2-trifluoroethyl)-2-azabicyclo[2.2.2]octan-6-yl)-[1,2,4]triazolo[1,5-c]quinazolin-5-amine] |
| – | 8.00 | COc1cccc2c1nc(N)n1nc(C3CC4CCC3N(CC(F)(F)F)C4)nc21 (single isomer, unassigned) [Example 35D, 7-methoxy-2-(2-(2,2,2-trifluoroethyl)-2-azabicyclo[2.2.2]octan-6-yl)-[1,2,4]triazolo[1,5-c]quinazolin-5-amine] |
| 9.05 | – | COc1cccc2c1nc(N)n1nc(C3CCCN(c4ccccc4)C3)nc21 (single isomer, unassigned) [Example 50A, 7-methoxy-2-(1-phenylpiperidin-3-yl)-[1,2,4]triazolo[1,5-c]quinazolin-5-amine] |
| 7.47 | – | COc1cccc2c1nc(N)n1nc(C3CCCN(c4ccccc4)C3)nc21 (single isomer, unassigned) [Example 50B, 7-methoxy-2-(1-phenylpiperidin-3-yl)-[1,2,4]triazolo[1,5-c]quinazolin-5-amine] |
| – | 8.72 | COc1cccc2c1nc(N)n1nc(C3CC(F)(F)CCO3)nc21 (single isomer, unassigned) [Example 55A, 2-(4,4-difluorotetrahydro-2H-pyran-2-yl)-7-methoxy-[1,2,4]triazolo[1,5-c]quinazolin-5-amine] |
| – | 8.70 | COc1cccc2c1nc(N)n1nc(C3CC(F)(F)CCO3)nc21 (single isomer, unassigned) [Example 55B, 2-(4,4-difluorotetrahydro-2H-pyran-2-yl)-7-methoxy-[1,2,4]triazolo[1,5-c]quinazolin-5-amine] |
| 9.10 | – | Nc1nc2c3c(ccc2c2nc(C4CCCN(CCC(F)(F)F)C4)nn12)OC(F)(F)O3 (single isomer, unassigned) [Example 56A] |
| 7.26 | – | Nc1nc2c3c(ccc2c2nc(C4CCCN(CCC(F)(F)F)C4)nn12)OC(F)(F)O3 (single isomer, unassigned) [Example 56B] |
| – | 8.62 | COc1cccc2c1nc(N)n1nc(C3CCC(F)(F)CN3)nc21 (single isomer, unassigned) [Example 58A, 2-(5,5-difluoropiperidin-2-yl)-7-methoxy-[1,2,4]triazolo[1,5-c]quinazolin-5-amine] |
| – | 9.52 | COc1cccc2c1nc(N)n1nc(C3CCC(F)(F)CN3)nc21 (single isomer, unassigned) [Example 58B, 2-(5,5-difluoropiperidin-2-yl)-7-methoxy-[1,2,4]triazolo[1,5-c]quinazolin-5-amine] |
